The values below come from patent US7875587B2, “Peptide analogues of GIP for treatment of diabetes, insulin resistance and obesity” (UUTECH Limited, priority 2004, dated 2011).

Usually share remaining stands for what is left of the initial amount, in per cent.

Like-named read-outs stand apart in the source and are kept apart here. No end group written: not given here.

The target of one data set is T1, DPP IV (Sus scrofa, UniProt P22411).
T1 construct: purchased Sigma (Poole, Dorset, UK)
In words: Degradation of GIP and analogues by DPP IV (HPLC). It counts as in vitro ADME. Conditions: for resistance to in vitro degradation with DPP IV relative to native GIP: Example 3, summary of Table 1; for % Intact peptide remaining after time (h) / remaining at 2 h, 1 mmol/l / remaining at 4 h, 1 mmol/l / remaining at 8 h, 1 mmol/l / remaining at 24 h, 1 mmol/l: incubation with DPP IV; for % Intact peptide remaining after time (h): 0 h; for remaining at 2 h, 1 mmol/l / remaining at 4 h, 1 mmol/l / remaining at 8 h, 1 mmol/l / remaining at 24 h, 1 mmol/l: isolated enzyme dpp iv, pH 7.8, read-out: % Intact peptide remaining after time (h). As to the method:
Degradation of GIP and Tyr^1-glucitol GIP by DPP IV. HPLC-purified GIP or Tyr^1-glucitol GIP were incubated at 37° C. with DPP-IV (5 mU) for various time periods in a reaction mixture made up to 500 μl with 50 mmol/l triethanolamine-HCl, pH 7.8 (final peptide concentration 1 mmol/l). Enzymatic reactions were terminated after 0, 2, 4 and 12 hours by addition of 5 μl of 10% (v/v) TFA/water. Samples were made up to a final volume of 1.0 ml with 0.12% (v/v) TFA and stored at −20° C. prior to HPLC analysis.
(§1) HPLC analysis of degraded GIP and Tyr^1-glucitol GIP. […] Using 0.1% (v/v) TFA in 70% acetonitrile/H20, the concentration of acetonitrile in the eluting solvent was raised from 0% to 31.5% over 15 min, to 38.5% over 30 minutes and from 38.5% to 70% over 5 minutes, using linear gradients. The absorbance was monitored at 206 nm and peak areas evaluated using a model 2221 LKB integrator. Samples recovered manually were concentrated using a Speed-Vac concentrator.
(§2) Electrospray ionization-mass spectrometry (ESI-MS) was carried out as described in Example 2. Degradation of GIP and novel GIP analogues by DPP IV and human plasma was carried out as described in Example 2.

Data set [1] is described as follows: Degradation of GIP and analogues by human plasma (HPLC). The format is in vitro ADME. Conditions: for % Intact peptide remaining after incubations with human plasma: 0 h; for effect of DPA on plasma degradation of the peptide: 24 hours in the presence of DPA; for remaining at 2 h, 20 µg/ml / remaining at 4 h, 20 µg/ml / remaining at 8 h, 20 µg/ml / remaining at 24 h, 20 µg/ml: human, plasma, read-out: % Intact peptide remaining after incubations with human plasma; for remaining at 2 h, 20 µg/ml: pH 7.8, 2 h; for remaining at 4 h, 20 µg/ml: pH 7.8, 4 h; for remaining at 8 h, 20 µg/ml: pH 7.8, 8 h. As to the method: Degradation of GIP and Tyr^1-glucitol GIP by human plasma. […] […] The reactions were terminated by addition of 5 μl of TFA and the final volume adjusted to 1.0 ml using 0.1% v/v TFA/water. Samples were centrifuged (13,000 g, 5 minutes) and the supernatant applied to a C-18 Sep-Pak cartridge (Millipore-Waters) which was previously primed and washed with 0.1% (v/v) TFA/water. […] The volume was adjusted to 1.0 ml with 0.12% (v/v) TFA/water prior to HPLC purification.
as §1, §2

In the next data set the test system is BRIN-BD11 cells. In words: Acute tests for insulin secretion from BRIN-BD11 cells. The format is cell-based. Conditions: 5.6 and 16.7 mM glucose, 10^-13 to 10^-8 M peptide. The procedure:
Culture of insulin secreting cells. BRIN-BD11 cells were cultured in sterile tissue culture flasks (Corning, Glass Works, UK) using RPMI-1640 tissue culture medium containing 10% (v/v) foetal calf serum, 1% (v/v) antibiotics (100 U/ml penicillin, 0.1 mg/ml streptomycin) and 11.1 mM glucose. The cells were maintained at 37° C. in an atmosphere of 5% CO2 and 95% air using a LEEC incubator (Laboratory Technical Engineering, Nottingham, UK).
Acute tests for insulin secretion. Before experimentation, the cells were harvested from the surface of the tissue culture flasks with the aid of trypsin/EDTA (Gibco), seeded into 24-multiwell plates (Nunc, Roskilde, Denmark) at a density of 1.5×10^5 cells per well, and allowed to attach overnight at 37° C. Acute tests for insulin release were preceded by 40 minutes pre-incubation at 37° C. in 1.0 ml Krebs Ringer bicarbonate buffer (115 mM NaCl, 4.7 mM KCl, 1.28 mM CaCl2, 1.2 mM KH2PO4, 1.2 mM MgSO4, 10 mM NaHCO3, 5 g/l bovine serum albumin, pH 7.4) supplemented with 1.1 mM glucose. Test incubations were performed (n=12) at two glucose concentrations (5.6 mM and 16.7 mM) with a range of concentrations (10^−13 to 10^−8 M) of GIP or GIP analogues. After 20 minutes incubation, the buffer was removed from each well and aliquots (200 μl) were used for measurement of insulin by radioimmunoassay.

Setting [2] is: pH 7.8, 24 hours in the presence of DPA (diprotin A).

T1 sequence (P22411 whole entry): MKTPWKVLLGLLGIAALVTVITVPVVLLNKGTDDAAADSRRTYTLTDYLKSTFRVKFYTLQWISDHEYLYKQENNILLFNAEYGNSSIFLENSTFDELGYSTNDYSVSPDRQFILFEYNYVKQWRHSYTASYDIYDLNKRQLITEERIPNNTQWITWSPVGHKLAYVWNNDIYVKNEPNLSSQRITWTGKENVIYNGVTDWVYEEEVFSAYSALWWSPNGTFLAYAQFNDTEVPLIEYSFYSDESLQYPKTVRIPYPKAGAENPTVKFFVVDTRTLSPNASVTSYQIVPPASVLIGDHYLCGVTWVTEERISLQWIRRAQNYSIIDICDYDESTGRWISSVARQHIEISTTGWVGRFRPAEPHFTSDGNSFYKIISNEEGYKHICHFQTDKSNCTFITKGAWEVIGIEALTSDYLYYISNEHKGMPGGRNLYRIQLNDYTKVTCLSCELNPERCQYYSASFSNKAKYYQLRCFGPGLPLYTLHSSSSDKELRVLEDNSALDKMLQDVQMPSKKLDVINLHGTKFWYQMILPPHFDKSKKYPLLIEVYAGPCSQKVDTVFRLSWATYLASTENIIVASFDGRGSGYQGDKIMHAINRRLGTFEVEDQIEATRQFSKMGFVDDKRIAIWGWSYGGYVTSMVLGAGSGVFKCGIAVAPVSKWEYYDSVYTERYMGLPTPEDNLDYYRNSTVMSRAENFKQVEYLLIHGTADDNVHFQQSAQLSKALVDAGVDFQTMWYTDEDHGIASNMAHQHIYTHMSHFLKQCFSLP

Take `CC[C@H](NC(=O)[C@@H](N)Cc1ccc(O)cc1)C(=O)N[C@@H](CCC(=O)O)C(=O)NCC(=O)N[C@H](C(=O)N[C@@H](Cc1ccccc1)C(=O)N[C@H](C(=O)N[C@@H](CO)C(=O)N[C@@H](CC(=O)O)C(=O)N[C@@H](Cc1ccc(O)cc1)C(=O)N[C@@H](CO)C(=O)N[C@H](C(=O)N[C@@H](C)C(=O)N[C@@H](CCSC)C(=O)N[C@@H](CC(=O)O)C(=O)N[C@@H](CCCCN)C(=O)N[C@H](C(=O)N[C@@H](Cc1c[nH]cn1)C(=O)N[C@@H](CCC(N)=O)C(=O)N[C@@H](CCC(N)=O)C(=O)N[C@@H](CC(=O)O)C(=O)N[C@@H](Cc1ccccc1)C(=O)N[C@H](C(=O)N[C@@H](CC(N)=O)C(=O)N[C@@H](Cc1c[nH]c2ccccc12)C(=O)N[C@@H](CC(C)C)C(=O)N[C@@H](CC(C)C)C(=O)N[C@@H](C)C(=O)N[C@@H](CCC(N)=O)C(=O)N[C@@H](CCCCN)C(=O)NCC(=O)N[C@@H](CCCCN)C(=O)N[C@@H](CCCCN)C(=O)N[C@@H](CC(N)=O)C(=O)N[C@@H](CC(=O)O)C(=O)N[C@@H](Cc1c[nH]c2ccccc12)C(=O)N[C@@H](CCCCN)C(=O)N[C@@H](Cc1c[nH]cn1)C(=O)N[C@@H](CC(N)=O)C(=O)N[C@H](C(=O)N[C@H](C(=O)N[C@@H](CCC(N)=O)C(=O)O)[C@@H](C)O)[C@@H](C)CC)C(C)C)[C@@H](C)CC)[C@@H](C)CC)[C@@H](C)CC)[C@@H](C)O` [GIP (Abu^2)]: at DPP IV, the “resistance to in vitro degradation with DPP IV relative to native GIP” value (“resistance … with DPP IV relative to native GIP” below) was “more resistant than native GIP”; the “% Intact peptide remaining after time (h)” value is listed as 100%; the fraction remaining at 2 h, 1 mmol/l was found to be 38 ± 1%; the fraction remaining at 4 h, 1 mmol/l came to 28 ± 2%. On DPP IV, the amount remaining at 8 h, 1 mmol/l was 0% and the fraction remaining at 24 h, 1 mmol/l stood at 0%. Further, in data set [1], the “% Intact peptide remaining after incubations with human plasma” value amounted to 100%; the “effect of DPA on plasma degradation of the peptide” value is “complete abolition of degradation”; the fraction remaining at 2 h, 20 µg/ml came to 38 ± 1%; the fraction remaining at 4 h, 20 µg/ml was 28 ± 2%. Further, in data set [1], the amount remaining at 8 h, 20 µg/ml stood at 0%. In addition, the share remaining at 24 h, 20 µg/ml in data set [1] (pH 7.8, 24 h) was 0%. In addition, in data set [1] (setting [2]), the share remaining at 24 h, 20 µg/ml was found to be 100%. In the data set on BRIN-BD11 cells, the “insulin secretion from BRIN-BD11 cells” value was “complex pattern of responsiveness dependent on glucose concentration and dose employed”.
Consider `CC[C@H](C)[C@H](NC(=O)[C@H](CO)NC(=O)[C@H](Cc1ccc(O)cc1)NC(=O)[C@H](CC(=O)O)NC(=O)[C@H](CO)NC(=O)[C@@H](NC(=O)[C@H](Cc1ccccc1)NC(=O)[C@@H](NC(=O)CNC(=O)[C@H](CCC(=O)O)NC(=O)CN(C)C(=O)[C@@H](N)Cc1ccc(O)cc1)[C@@H](C)O)[C@@H](C)CC)C(=O)N[C@@H](C)C(=O)N[C@@H](CCSC)C(=O)N[C@@H](CC(=O)O)C(=O)N[C@@H](CCCCN)C(=O)N[C@H](C(=O)N[C@@H](Cc1c[nH]cn1)C(=O)N[C@@H](CCC(N)=O)C(=O)N[C@@H](CCC(N)=O)C(=O)N[C@@H](CC(=O)O)C(=O)N[C@@H](Cc1ccccc1)C(=O)N[C@H](C(=O)N[C@@H](CC(N)=O)C(=O)N[C@@H](Cc1c[nH]c2ccccc12)C(=O)N[C@@H](CC(C)C)C(=O)N[C@@H](CC(C)C)C(=O)N[C@@H](C)C(=O)N[C@@H](CCC(N)=O)C(=O)N[C@@H](CCCCN)C(=O)NCC(=O)N[C@@H](CCCCN)C(=O)N[C@@H](CCCCN)C(=O)N[C@@H](CC(N)=O)C(=O)N[C@@H](CC(=O)O)C(=O)N[C@@H](Cc1c[nH]c2ccccc12)C(=O)N[C@@H](CCCCN)C(=O)N[C@@H](Cc1c[nH]cn1)C(=O)N[C@@H](CC(N)=O)C(=O)N[C@H](C(=O)N[C@H](C(=O)N[C@@H](CCC(N)=O)C(=O)O)[C@@H](C)O)[C@@H](C)CC)C(C)C)[C@@H](C)CC` [GIP (Sar^2)], for which, on DPP IV, the “resistance … with DPP IV relative to native GIP” value is reported as “less resistant”; the “% Intact peptide remaining after time (h)” value came to 100%; the share remaining at 2 h, 1 mmol/l stood at 28 ± 2%; the share remaining at 4 h, 1 mmol/l is 8%. Moreover, on DPP IV, the amount remaining at 8 h, 1 mmol/l amounted to 0% and the fraction remaining at 24 h, 1 mmol/l worked out at 0%. Further, in data set [1], the “% Intact peptide remaining after incubations with human plasma” value is 100%; the amount remaining at 2 h, 20 µg/ml came out at 28 ± 2%; the fraction remaining at 4 h, 20 µg/ml came out at 8%; the share remaining at 8 h, 20 µg/ml turned out to be 0%. Moreover, in data set [1] (Example 3, summary of Table 2), the “plasma degradation” value is on record as “resistance to plasma degradation”. For the same compound, the share remaining at 24 h, 20 µg/ml in data set [1] (pH 7.8, 24 h) was 0%. In data set [1] (setting [2]), the amount remaining at 24 h, 20 µg/ml turned out to be 100%. In addition, the “insulin secretion from BRIN-BD11 cells” value with BRIN-BD11 cells was “complex pattern of responsiveness dependent on glucose concentration and dose employed”.
With “YSEGTFISDYSIAMDKIHQQDFVNWLLAQKGKKNDWKHNITQ-OH [GIP (Ser^2)]”, at DPP IV, the “resistance … with DPP IV relative to native GIP” value is reported as “more resistant than native GIP”; the “% Intact peptide remaining after time (h)” value is given as 100%; the amount remaining at 2 h, 1 mmol/l was determined as 77 ± 2%; the amount remaining at 4 h, 1 mmol/l was found to be 60 ± 1%. Further, on DPP IV, the share remaining at 8 h, 1 mmol/l came to 32 ± 4% and the fraction remaining at 24 h, 1 mmol/l worked out at 0%. In addition, in data set [1], the “% Intact peptide remaining after incubations with human plasma” value stood at 100%; the “effect of DPA on plasma degradation of the peptide” value is reported as “complete abolition of degradation”; the share remaining at 2 h, 20 µg/ml was determined as 77 ± 2%; the share remaining at 4 h, 20 µg/ml was 60 ± 1%. The amount remaining at 8 h, 20 µg/ml in data set [1] worked out at 32 ± 4%. Also, the amount remaining at 24 h, 20 µg/ml in data set [1] (pH 7.8, 24 h) was 0%. The fraction remaining at 24 h, 20 µg/ml in data set [1] (setting [2]) was 63 ± 3%. The “insulin secretion from BRIN-BD11 cells” value with BRIN-BD11 cells is reported as “strong response”.
